# In patent publication US20260053812A1, “METHODS OF TREATING HYPERTENSION WITH A COMBINATION OF AN ALDOSTERONE SYNTHASE INHIBITOR AND A DIURETIC” (Mineralys Therapeutics, Inc., priority 2022, published 2026):
# Values joined by “and” are separate entries in the source; they are usually repeats but may differ in a detail not shown here. Equal values may be shown once.
# Experiment: Adverse events (TEAEs, SAEs, AESI; Safety Analysis Set)
# [1] = Table 43, Part 1, 100 mg QD (N = 31)
structure (smiles),measurement,setting,value
CC(=O)N[C@H]1CC[C@H](NC(=O)CN2CCN(c3nncc(-c4ccc(C)cc4)n3)CC2)CC1 [Compound A HBr],"TEAE leading to permanent discontinuation from study drug, Vascular disorders, %","Part 1, Active (N = 133)",(2.3) %
same,Subjects with TEAEs considered at least possibly related to study drug,"Part 1, active drug, listed as lorundrostat",27 (20.3%) subjects (%)
same,AE requiring dose titration: Hyperkalemia,"Part 1 All active, N 159",6 (3.8%)
same,AE requiring dose titration: Hyponatremia,"Part 1 All active, N 159",0
same,AE requiring dose titration: Other possibly related,"Part 1 All active, N 159",0
same,AE requiring dose titration: Other unrelated,"Part 1 All active, N 159",1 (0.6%)
same,AE requiring study drug discontinuation: Hyperkalemia,"Part 1 All active, N 159",6 (3.8%)
same,AE requiring study drug discontinuation: Hyponatremia,"Part 1 All active, N 159",0
same,AE requiring study drug discontinuation: Hypotension,"Part 1 All active, N 159",2 (1.2%)
same,AE requiring study drug discontinuation: Other possibly related,"Part 1 All active, N 159",1 (0.6%)
same,AE requiring study drug discontinuation: Other unrelated,"Part 1 All active, N 159",11 (6.9%)
same,Deaths,Part 1 or Part 2,No deaths
same,Subjects with TEAE resulting in dose modification,Part 2,7 subjects
same,Muscle spasms,Part 2 100 mg QD cohort,3 (9.7%) subjects (%)
same,Subjects with ≥1 moderate on-treatment TEAE,Part 2 100 mg QD cohort,12 (38.7%) subjects (%)
same,AE requiring dose titration: Hyperkalemia,"Part 2 100 mg QD, N 31",1 (3.2%)
same,AE requiring dose titration: Hyponatremia,"Part 2 100 mg QD, N 31",1 (3.2%)
same,AE requiring dose titration: Other possibly related,"Part 2 100 mg QD, N 31",0
same,AE requiring dose titration: Other unrelated,"Part 2 100 mg QD, N 31",0
same,AE requiring study drug discontinuation: Hyperkalemia,"Part 2 100 mg QD, N 31",0
same,AE requiring study drug discontinuation: Hyponatremia,"Part 2 100 mg QD, N 31",1 (3.4%)
same,AE requiring study drug discontinuation: Hypotension,"Part 2 100 mg QD, N 31",1 (2.8%)
same,AE requiring study drug discontinuation: Other possibly related,"Part 2 100 mg QD, N 31",0
same,AE requiring study drug discontinuation: Other unrelated,"Part 2 100 mg QD, N 31",1 (2.8%)
same,"Subjects with any On-treatment TEAEs leading to withdrawal from study drug, %","Part 2, 100 mg QD (N = 31)",6.5%
same,"TEAE leading to permanent withdrawal from study drug, Glomerular filtration rate decreased, %","Part 2, 100 mg QD (N = 31)",3.2%
same,"TEAE leading to permanent withdrawal from study drug, Hyponatraemia, %","Part 2, 100 mg QD (N = 31)",3.2%
same,"TEAE leading to permanent withdrawal from study drug, Investigations, %","Part 2, 100 mg QD (N = 31)",3.2%
same,"TEAE leading to permanent withdrawal from study drug, Metabolism and nutrition disorders, %","Part 2, 100 mg QD (N = 31)",3.2%
same,"TEAE leading to permanent withdrawal from study drug, Muscle spasms, %","Part 2, 100 mg QD (N = 31)",3.2%
same,"TEAE leading to permanent withdrawal from study drug, Musculoskeletal and connective tissue disorders, %","Part 2, 100 mg QD (N = 31)",3.2%
same,Subjects with TEAEs considered at least possibly related to study drug,"Part 2, lorundrostat",9 subjects (%) and 9 (29.0%) subjects (%)
same,"On-treatment TEAE, Chronic kidney disease, %",[1],(6.5) %
same,"On-treatment TEAE, Chronic kidney disease, Mild, %",[1],(6.5) %
same,"On-treatment TEAE, Diarrhoea, %",[1],(6.5) %
same,"On-treatment TEAE, Diarrhoea, Mild, %",[1],(6.5) %
same,"On-treatment TEAE, Dizziness, %",[1],(6.5) %
same,"On-treatment TEAE, Dizziness, Mild, %",[1],(6.5) %
same,"On-treatment TEAE, Gastrointestinal disorders, %",[1],(16.1) %
same,"On-treatment TEAE, Gastrointestinal disorders, Mild, %",[1],(9.7) %
same,"On-treatment TEAE, Gastrointestinal disorders, Moderate, %",[1],(6.5) %
same,"On-treatment TEAE, Hyperkalaemia, %",[1],(25.8) %
same,"On-treatment TEAE, Hyperkalaemia, Mild, %",[1],(9.7) %
same,"On-treatment TEAE, Hyperkalaemia, Moderate, %",[1],(16.1) %
same,"On-treatment TEAE, Hyponatraemia, %",[1],(6.5) %
same,"On-treatment TEAE, Infections and infestations, %",[1],(16.1) %
same,"On-treatment TEAE, Infections and infestations, Mild, %",[1],(6.5) %
same,"On-treatment TEAE, Infections and infestations, Moderate, %",[1],(9.7) %
same,"On-treatment TEAE, Investigations, %",[1],(6.5) %
same,"On-treatment TEAE, Metabolism and nutrition disorders, %",[1],(32.3) %
same,"On-treatment TEAE, Metabolism and nutrition disorders, Mild, %",[1],(6.5) %
same,"On-treatment TEAE, Metabolism and nutrition disorders, Moderate, %",[1],(22.6) %
same,"On-treatment TEAE, Muscle spasms, %",[1],(9.7) %
same,"On-treatment TEAE, Muscle spasms, Moderate, %",[1],(6.5) %
same,"On-treatment TEAE, Musculoskeletal and connective tissue disorders, %",[1],(16.1) %
same,"On-treatment TEAE, Musculoskeletal and connective tissue disorders, Mild, %",[1],(6.5) %
same,"On-treatment TEAE, Musculoskeletal and connective tissue disorders, Moderate, %",[1],(9.7) %
same,"On-treatment TEAE, Nausea, %",[1],(6.5) %
same,"On-treatment TEAE, Nausea, Mild, %",[1],(6.5) %
same,"On-treatment TEAE, Nervous system disorders, %",[1],(6.5) %
same,"On-treatment TEAE, Nervous system disorders, Mild, %",[1],(6.5) %
same,"On-treatment TEAE, Renal and urinary disorders, %",[1],(6.5) %
same,"On-treatment TEAE, Renal and urinary disorders, Mild, %",[1],(6.5) %
same,"On-treatment TEAE, Urinary tract infection, %",[1],(6.5) %
same,"Subjects with any On-treatment TEAEs, Mild, %",[1],(19.4) %
same,"Subjects with any On-treatment TEAEs, Moderate, %",[1],(38.7) %
same,"Subjects with any On-treatment TEAEs, Severe, %",[1],(3.2) %
same,AE requiring dose titration: Hyperkalemia,"Total active, N 190",7 (4.1%)
same,AE requiring dose titration: Hyponatremia,"Total active, N 190",1 (0.5%)
same,AE requiring dose titration: Other possibly related,"Total active, N 190",0
same,AE requiring dose titration: Other unrelated,"Total active, N 190",1 (0.5%)
same,AE requiring study drug discontinuation: Hyperkalemia,"Total active, N 190",6 (3.2%)
same,AE requiring study drug discontinuation: Hyponatremia,"Total active, N 190",1 (0.5%)
same,AE requiring study drug discontinuation: Hypotension,"Total active, N 190",3 (1.6%)
same,AE requiring study drug discontinuation: Other possibly related,"Total active, N 190",1 (0.5%)
same,AE requiring study drug discontinuation: Other unrelated,"Total active, N 190",12 (6.3%)
same,Subjects who developed orthostatic hypotension,fall of 20 mmHg in SBP or 10 mmHg in DBP sitting to standing,three
same,Subjects with hypotension related to treatment,"two in 100 mg QD cohorts (Part 1, Part 2), one 12.5 mg BID, reversible with treatment cessation",three
same,Overall safety and tolerability,whole study,safe and well tolerated
